Assays:
[1] = Intrinsic clearance in rat liver microsomes; type: ADME, Microsome
[2] = Intrinsic clearance in human liver microsomes; type: ADME, Microsome

CLint scaled [1]: 36.9 mL/min/kg
CLint scaled [2]: 8.9 mL/min/kg
SMILES: O=C1N(CCN2Cc3ccccc3C2)CCN1c1cccc(Cl)c1

— ChEMBL document CHEMBL1155321, “Dopamine D3 receptor antagonists: the quest for a potentially selective PET ligand. Part 3: Radiosynthesis and in vivo studies” (Bioorg Med Chem Lett, 2009)
